Assay results from US20180193294A1, “Dehydroabietic acid (DHAA) derivatives for use as ion channel openers” (priority 2015, published 2018).

How the values were obtained:
[1] = system: dorsal root ganglion (DRG) neurons; experiment: Resting membrane potential of DRG neurons, whole-cell current clamp; format: cell-based, mice; settings: 10 μM, pH 7.4, 120 s application
Procedure: All animal experiments were approved by the local Animal Care and Use Committee and followed international guidelines. Five female 7-12 week-old C57BL/6 mice (Scanbur) were used for this study. The mice were anaesthetized with isoflurane and decapitated. Dorsal root ganglia (DRG) were dissected from all spinal levels and enzymatically digested with collagenase (250 CDU/ml) for 15 min, and then trypsin (1 mg/ml) was added for another 30 min. The ganglia were centrifuged and resuspended in Leibovitz L-15 media with glutamine, supplemented with 10% fetal calf serum, 38 mM glucose, 24 mM NaHCO3 and penicillin/streptomycin. The ganglia were triturated and the DRG neurons plated on poly-D-lysine coated plastic coverslips. The neurons were cultured at 37° C. with 5% CO2 for 2-3 days before the electrophysiological recordings.
All manual electrophysiological recordings were performed at room temperature (20-23° C.), using a GeneClamp 500B amplifier (for oocytes) or a Axopatch 200B amplifier (for manual patch clamp of CHO—K1 cells and DRG neurons) and a Digidata 1440A digitizer and pClamp 10 software (all from Molecular Devices, Inc., Sunnyvale, Calif., USA). Compounds were dissolved to 100 mM in 99.5% EtOH and stored at −20° C. Compounds were diluted in extracellular solution to the desired test concentration.
CHO—K1 Cells were plated on coverslips 2 h before the manual electrophysiological recordings. Coverslips with CHO—K1 cells or DRG neurons were placed in a recording chamber and perfused with extracellular solution by a gravity-fed perfusion system. Substances were applied by a pressurized, automated OctaFlow perfusion system (ALA Scientific Instruments). The signals were sampled at 5-20 kHz after low-pass filtering at 2-5 kHz. For CHO—K1 cells the intracellular solution contained (in mM): 120 K-gluconate, 10 KCl, 5 EGTA, 10 HEPES, 4 Mg-ATP, 0.3 Na-GTP, pH 7.3; the extracellular solution contained (in mM): 135 NaCl, 4 KCl, 10 HEPES, 1 MgCl2, 1.8 CaCl2, 10 glucose, pH 7.4. Currents were evoked in CHO—K1 cells in whole-cell voltage-clamp mode from a holding potential of −80 mV by 100-ms long, 10-mV steps ranging from −80 to +80 mV.
For DRG neurons the intracellular solution contained (in mM): 120 K-gluconate, 10 KCl, 1 EGTA, 10 HEPES, 4 Mg-ATP, 0.3 Na-GTP, pH 7.3; the extracellular solution contained (in mM): 144 NaCl, 2.5 KCl, 10 HEPES, 0.5 MgCl2, 2 CaCl2, 10 glucose, pH 7.4. A liquid-junction potential of approximately −14 mV was corrected for. […] Small and medium sized DRG neurons were selected for whole-cell current-clamp recording. 10 μM of the compounds were applied for 120 s to study the effect on the resting membrane potential, and for 45-120 s to study the effects on evoked action potentials. To evoke action potentials 800-ms depolarizing pulses
The compound effect on the resting membrane potential Vm was determined by subtracting the control pre-compound Vm from the Vm at the end of the 120 s application of test compound.

[2] = target: 3R Shaker K channel (Drosophila melanogaster, UniProt P08510, A359R/M356R); experiment: physchem; format: cell-based; settings: Table 1; 100 μM, pH 7.4, Xenopus oocytes
Sequence of 3R Shaker K channel (P08510 whole entry M356R/A359R): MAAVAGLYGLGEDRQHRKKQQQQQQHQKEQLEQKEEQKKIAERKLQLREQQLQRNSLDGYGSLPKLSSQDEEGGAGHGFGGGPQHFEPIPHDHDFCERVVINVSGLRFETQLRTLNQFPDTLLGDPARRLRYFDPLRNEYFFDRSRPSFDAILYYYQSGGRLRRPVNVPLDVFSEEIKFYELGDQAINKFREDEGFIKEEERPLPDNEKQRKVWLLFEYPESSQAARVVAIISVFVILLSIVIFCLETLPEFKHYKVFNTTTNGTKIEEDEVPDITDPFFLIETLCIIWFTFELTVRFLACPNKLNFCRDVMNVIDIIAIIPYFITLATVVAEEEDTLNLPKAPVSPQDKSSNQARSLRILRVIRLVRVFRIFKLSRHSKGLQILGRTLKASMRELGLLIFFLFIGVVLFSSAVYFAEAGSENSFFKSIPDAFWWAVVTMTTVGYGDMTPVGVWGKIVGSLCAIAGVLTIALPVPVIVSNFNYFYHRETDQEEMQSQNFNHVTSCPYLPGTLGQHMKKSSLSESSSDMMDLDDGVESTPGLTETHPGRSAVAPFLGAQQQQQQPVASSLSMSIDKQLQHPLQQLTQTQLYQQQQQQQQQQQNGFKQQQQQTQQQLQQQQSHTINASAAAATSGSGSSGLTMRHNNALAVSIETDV
How it was run: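 Two-electrode voltage clamp at 20-23° C. in oocytes (also CHO-K1 stable line, manual patch clamp) expressing Shaker H4 lacking N-type inactivation; 1K extracellular solution, pH 7.4, holding −80 mV, 100-ms 5-mV steps up to +70 mV. Compound-induced G(V) shift taken at 10% of control Gmax (oocytes) or as V1/2 difference (CHO-K1).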

Structure (SMILES)	shift of the resting membrane potential (ΔVm) [1]	G(V) shift [2] [mV]
C=CCO/N=C1\CC2[C@](C)(C(=O)O)CCC[C@]2(C)c2cc(Cl)c(C(C)C)cc21 (stereo partly drawn) [Wu23, (1R,4aS,E)-9-((allyloxy)imino)-6-chloro-7-isopropyl-1,4a-dimethyl-1,2,3,4,4a,9,10,10a-octahydrophenanthrene-1-carboxylic acid]	intermediately potent hyperpolarizers	−26.7
CC(C)c1cc2c(cc1Cl)[C@@]1(C)CCC[C@@](C)(C(=O)O)C1CC2 (stereo partly drawn) [Wu13, (1R,4aS)-6-chloro-7-isopropyl-1,4a-dimethyl-1,2,3,4,4a,9,10,10a-octahydrophenanthrene-1-carboxylic acid]	most potent compounds on the DRG neurons	−15.8
CO/N=C1\CC2[C@](C)(C(=O)O)CCC[C@]2(C)c2ccc(C(C)C)c(Br)c21 (stereo partly drawn) [Wu74, (1R,4aS,E)-8-bromo-7-isopropyl-9-(methoxyimino)-1,4a-dimethyl-1,2,3,4,4a,9,10,10a-octahydrophenanthrene-1-carboxylic acid]	intermediately potent hyperpolarizers	−14.7
